Patent US9284330B2 (priority 2011, dated 2016)
Like-named read-outs stand apart in the source and are kept apart here.

Assays:
[1] = tested on: primary cortical neuron cells; details: for Relative neuron activity (average): 24 h incubation; for Toxicity to primary neurons (in words): concentrations tested 0.01, 0.1 and 1 μM, 24 h
acetylcholinesterase = acetylcholinesterase (Electrophorus electricus (Electric eel) (Gymnotus electricus), UniProt O42275); assay: biochemical
[2] = tested on: tau protein phosphorylation; format: cell-based; details: Western blot, 24 h incubation
L-type Ca2+ channel [3] = assay: Blocking of L-type Ca2+ channel by high content screening analyzer, KCl-induced calcium ion influx in SH-SY5Y cells (Fluo-4-AM)
L-type Ca2+ channel [4] = assay: Blocking of L-type Ca2+ channel by patch clamp, calcium current in rat dorsal root ganglion cells; format: cell-based; details: whole cell patch clamp
[5] = tested on: primary cortical neuron cells; assay: Effect of the compounds on the morphology of neurons (microscopy); details: 0.01 to 1 μM, 24 h

acetylcholinesterase, sequence (O42275 whole entry, looked up): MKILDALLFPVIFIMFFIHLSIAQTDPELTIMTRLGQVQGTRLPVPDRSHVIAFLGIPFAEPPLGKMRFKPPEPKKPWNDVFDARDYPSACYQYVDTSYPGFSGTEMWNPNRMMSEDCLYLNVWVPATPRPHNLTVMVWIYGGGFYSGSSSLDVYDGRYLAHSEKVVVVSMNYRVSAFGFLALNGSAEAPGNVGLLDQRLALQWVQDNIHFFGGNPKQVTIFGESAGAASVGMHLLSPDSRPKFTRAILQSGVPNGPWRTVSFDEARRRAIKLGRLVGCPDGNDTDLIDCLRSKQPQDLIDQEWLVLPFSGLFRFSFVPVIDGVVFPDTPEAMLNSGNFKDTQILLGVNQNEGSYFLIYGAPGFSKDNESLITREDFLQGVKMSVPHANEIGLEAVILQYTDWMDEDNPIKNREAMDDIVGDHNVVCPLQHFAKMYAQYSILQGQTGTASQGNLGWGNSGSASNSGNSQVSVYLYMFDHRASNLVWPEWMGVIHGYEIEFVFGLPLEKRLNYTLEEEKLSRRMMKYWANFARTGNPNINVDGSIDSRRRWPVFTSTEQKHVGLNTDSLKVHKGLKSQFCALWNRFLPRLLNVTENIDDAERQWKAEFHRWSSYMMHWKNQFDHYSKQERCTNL

CCOC(=O)C1=C(C)Nc2nc3c(c(N)c2C1c1cccc(Cl)c1)CC(C)(C)CC3 (stereo not shown) [Compound S6, 5-amino-4-(3-chlorphenyl)-2,7,7-trimethyl-1,4,6,7,8,9-hexahydrobenzo[b][6,8]naphth yridine-3-carboxylic acid ethyl ester]
Relative neuron activity (average) ([1]; 0.01 μM): 107.1% | Relative neuron activity (average) ([1]; 0.1 μM): 105.3% | Relative neuron activity (average) ([1]; 1 μM): 99.0% | Toxicity to primary neurons (in words) [1]: no significant toxicity | IC50 (acetylcholinesterase): 893 nM | Intracellular tau protein phosphorylation of neurons [2]: reduced | Inhibition rate of KCl-induced calcium ion influx (L-type Ca2+ channel [3]; 10 μM compound): 11.30% | Inhibition rate of KCl-induced calcium ion influx (L-type Ca2+ channel [3]; 50 μM compound): 95.51%

COC(=O)C1=C(C)Nc2nc3c(c(N)c2C1c1cccc(Cl)c1Cl)CC(C)CC3 (stereo not shown) [Compound S27, 5-amino-4-(2,3-dichlorophenyl)-2,7-dimethyl-1,4,6,7,8,9-hexahydrobenzo[b][1,8]nap hthyridine-3-carboxylic acid methyl ester]
Inhibition rate of L-type Ca2+ channel current (L-type Ca2+ channel [4]; 100 nmol/L compound): 39.68% | Inhibition rate of L-type Ca2+ channel current (L-type Ca2+ channel [4]; 1000 nmol/L compound): 65.54% | Relative neuron activity (average) ([1]; 0.01 μM): 123.7% | Relative neuron activity (average) ([1]; 0.1 μM): 102.9% | Relative neuron activity (average) ([1]; 1 μM): 43.0% | IC50 (acetylcholinesterase): 178 nM

CC1=C(C(=O)OC(C)C)C(c2ccccc2F)c2c(nc3c(c2N)CC(C)(C)CC3)N1 (stereo not shown) [Compound S8, 5-amino-4-(2-fluorophenyl)-2,7,7-trimethyl-1,4,6,7,8,9-hexahydrobenzo[b][1,8]napht hyridine-3-carboxylic acid isopropyl ester]
Relative neuron activity (average) ([1]; 0.01 μM): 114.7% | Relative neuron activity (average) ([1]; 0.1 μM): 101.7% | Relative neuron activity (average) ([1]; 1 μM): 97.7% | Toxicity to primary neurons (in words) [1]: no significant toxicity | IC50 (acetylcholinesterase): 757 nM | Intracellular tau protein phosphorylation of neurons [2]: reduced | Inhibition rate of KCl-induced calcium ion influx (L-type Ca2+ channel [3]; 10 μM compound): 61.63% | Inhibition rate of KCl-induced calcium ion influx (L-type Ca2+ channel [3]; 50 μM compound): 93.28%

CCOC(=O)C1=C(C)Nc2nc3c(c(N)c2C1c1ccccc1Cl)CC(C)(C)CC3 (stereo not shown) [Compound S1, 5-amino-4-(2-chlorphenyl)-2,7,7-trimethyl-1,4,6,7,8,9-hexahydrobenzo[b][1,8]naphthyridine-3-carboxylic acid ethyl ester]
Inhibition rate of L-type Ca2+ channel current (L-type Ca2+ channel [4]; 100 nmol/L compound): 38.14% | Inhibition rate of L-type Ca2+ channel current (L-type Ca2+ channel [4]; 1000 nmol/L compound): 61.76% | Relative neuron activity (average) ([1]; 0.01 μM): 110.6% | Relative neuron activity (average) ([1]; 0.1 μM): 113.9% | Relative neuron activity (average) ([1]; 1 μM): 97.9% | Toxicity to primary neurons (in words) [1]: no significant toxicity | IC50 (acetylcholinesterase): 768 nM | Effect on the morphology of neurons [5]: no effect on the morphology of neurons | Intracellular tau protein phosphorylation of neurons [2]: reduced | Inhibition rate of KCl-induced calcium ion influx (L-type Ca2+ channel [3]; 10 μM compound): 29.29% | Inhibition rate of KCl-induced calcium ion influx (L-type Ca2+ channel [3]; 50 μM compound): 63.60%

COC(=O)C1=C(C)Nc2nc3c(c(N)c2C1c1cccc([N+](=O)[O-])c1)CCCC3C (stereo not shown) [Compound S15, 5-amino-4-(3-nitrophenyl)-2,9-dimethyl-1,4,6,7,8,9-hexahydrobenzo[b][1,8]naphthyridine-3-carboxylic acid methyl ester]
Relative neuron activity (average) ([1]; 0.01 μM): 111.9% | Relative neuron activity (average) ([1]; 0.1 μM): 105.8% | Relative neuron activity (average) ([1]; 1 μM): 65.9% | Toxicity to primary neurons (in words) [1]: minor toxicity | IC50 (acetylcholinesterase): 729 nM | Intracellular tau protein phosphorylation of neurons [2]: reduced

CC1=C(C(=O)OC(C)C)C(c2cccc(F)c2)c2c(nc3c(c2N)CC(C)(C)CC3)N1 (stereo not shown) [Compound S3, 5-amino-4-(3-fluorophenyl)-2,7,7-trimethyl-1,4,6,7,8,9-hexahydrobenzo[b][1,8]napht hyridine-3-carboxylic acid isopropyl ester]
Relative neuron activity (average) ([1]; 0.01 μM): 107.7% | Relative neuron activity (average) ([1]; 0.1 μM): 102.4% | Relative neuron activity (average) ([1]; 1 μM): 98.8% | Toxicity to primary neurons (in words) [1]: no significant toxicity | IC50 (acetylcholinesterase): 1130 nM | Intracellular tau protein phosphorylation of neurons [2]: reduced | Inhibition rate of KCl-induced calcium ion influx (L-type Ca2+ channel [3]; 10 μM compound): 81.33% | Inhibition rate of KCl-induced calcium ion influx (L-type Ca2+ channel [3]; 50 μM compound): 86.82%

CC1=C(C(=O)OC(C)C)C(c2ccccc2Cl)c2c(nc3c(c2N)CC(C)(C)CC3)N1 (stereo not shown) [Compound S32, 5-amino-2,7,7-trimethyl-4-(2-chlorphenyl)-1,4,6,7,8,9-hexahydrobenzo[b][1,8]naphth yridine-3-carboxylic acid isopropyl ester]
Relative neuron activity (average) ([1]; 0.01 μM): 115.5% | Relative neuron activity (average) ([1]; 0.1 μM): 106.5% | Relative neuron activity (average) ([1]; 1 μM): 98.6% | Toxicity to primary neurons (in words) [1]: no significant toxicity | IC50 (acetylcholinesterase): 6920 nM | Intracellular tau protein phosphorylation of neurons [2]: reduced | Inhibition rate of KCl-induced calcium ion influx (L-type Ca2+ channel [3]; 10 μM compound): 29.49% | Inhibition rate of KCl-induced calcium ion influx (L-type Ca2+ channel [3]; 50 μM compound): 91.10%
